Measured values as given in patent US6524842B1, “Biodegradation of gasoline oxygenates” (Envirogen, Inc., priority 2000, dated 2003).
Like-named read-outs stand apart in the source and are kept apart here.

Columns and labels:
[1] = tested on: strain ENV735; experiment: Growth substrates for ENV735; format: cell-based, Hydrogenophaga flava
[2] = tested on: strain ENV735; experiment: MTBE degradation assays with ENV735 cells; format: cell-based, Hydrogenophaga flava
[3] = tested on: ENV 735-containing culture from MBR1; experiment: Fluid bed bioreactor (FBR) MTBE degradation; conditions: flow rate increased 3-fold, 1 hr HRT
Experimental: A laboratory-scale FBR was constructed from a glass column with Teflon and stainless steel tubing and fittings to minimize abiotic losses. […] The carbon was fluidized to an expanded bed height of 125% of the original bed height by using a gear pump in the recycle line. Contaminated water was fed at a rate of 5.6 to 17 mL/min using a peristaltic pump, corresponding to hydraulic retention times (HRTs) of approximately 3 to 1 h, respectively. The HRT was calculated based on expanded bed volume and feed flow rate (assumes no significant biodegradation occurred in other wetted areas of the reactor).

[4] = tested on: anaerobic sediment samples; conditions: the one active anaerobic sediment sample; cited from earlier work
[5] = tested on: hydrogen-oxidizing microorganism; experiment: Bioreactor laboratory testing, continuous operation; conditions: hydraulic retention time of 2.5 hr to 3 days
Text: Batch operation can be initiated by inoculating the reactor with the hydrogen-oxidizing microorganism and then adding tertiary butyl alcohol, for example, to a final concentration of from 0.1 to 1% (v/v). The organisms are aerated and allowed to grow until no tertiary butyl alcohol remains in the culture medium. Additional tertiary butyl alcohol can then be added to further increase biomass levels. After sufficient biomass is obtained, a small amount of contaminant (e.g., MTBE) can be added to acclimate the organisms. Additional contaminant can be added after depletion of the prior addition. When sufficient degradation rates are achieved, the reactor can be operated in a continuous mode. Preferably, during continuous and batch operation, the reactor should be operated at a temperature of between 25 and 37° C., with the pH in the range of 6.8 to 7.2, and a dissolved oxygen concentration >2 mg/L. Hydraulic retention time within the reactor should be adjusted to allow sufficient time for degradation of the target compound to below treatment standards. […] Furthermore, the volatile suspended solids (biomass) concentration should be maintained at a relatively high concentration, preferably from 1,000 to 30,000 mg/l depending on the contaminant loading rate.

[6] = tested on: ENV 735; experiment: Membrane bioreactor (MBR1, MBR2) MTBE degradation; parameters: species or system Hydrogenophaga flava
Experimental: A calculated solids retention time (SRT) of 160 days was maintained by removing a portion of the reactor contents each day. The dissolved oxygen concentration in the reactor was maintained at ˜2 mg/L by adding air.

[7] = tested on: strain ENV735; experiment: TBA degradation by ENV735 cells; format: cell-based, Hydrogenophaga flava
[8] = tested on: strain ENV735; experiment: [14C]MTBE mineralization to 14CO2; format: cell-based, Hydrogenophaga flava; conditions: YE-grown cells, 10 mg/L, within 24 hr
Text: Cells were collected by centrifugation, washed, and suspended in BSM to an OD550 of 1.0. […] At timed intervals air was passed through the samples and organic compounds and ^14CO2 in the effluent air were trapped (Marinucci, A. C. and R. Bartha, “Apparatus for monitoring the mineralization of volatile ^14C-labeled compounds”, Applied and Environmental Microbiology, 38:1020-1022, (1979)). Oxosol C14 (National Diagnostics, Atlanta, Ga.) served as a CO2 trapping solution and liquid scintillation cocktail. The amount of ^14CO2 produced was quantified by liquid scintillation counting.

[9] = growth of ENV735 on the substrate

Compound | Growth [1, 9] | other results
CCCO [1-Propanol] | +/− | 
CC(C)(O)C(=O)O [2-Hydroxy isobutyric acid] | + | 
CC(C)O [2-Propanol] | − | 
N[C@@H](CCC(=O)O)C(=O)O [Glutamic acid] | +/− | 
[HH] [H2, hydrogen] |  | Growth on H2 as a sole energy source ([1]; strain ENV735): grew readily; effect of presence of H2 on MTBE degradation ([2]; strain ENV735): not inhibited
CCC(C)C [Iso-Pentane] | − | 
CC(O)C(=O)O (centres unmarked) [Lactic acid] | +/− | 
COC(C)(C)C [MTBE, methyl-tert-butyl ether] | + | removal of added MTBE [3]: > 90%; transformation of MTBE [4]: about 50%; degradation of influent MTBE [5]: > 90%; MTBE removal rate ([6]; MBR1, 1 d HRT, influent ˜1000 mg/L): 42 mg/L/h; MTBE removal rate ([6]; MBR2, influent ˜2000 mg/L): 28 mg/L/h; MTBE stripping as share of MTBE loss ([6]; effluent air of MBRs): < 5%; initial maximum MTBE oxidation rate ([2]; 30° C., YE-grown cells, 25 mg/L MTBE): 86 nmole MTBE/min./mg total cell protein
CO [Methanol] | − | 
CCC [Propane] | +/− | 
CCC(=O)O [Propionic acid] | − | 
CC(=O)C(=O)O [Pyruvic acid] | +/− | 
CC(=O)[O-].[Na+] [Sodium acetate] | +/− | 
OC[C@H]1O[C@@](CO)(O[C@H]2O[C@H](CO)[C@@H](O)[C@H](O)[C@H]2O)[C@@H](O)[C@@H]1O [Sucrose] | +++ | 
CC(C)(C)O [TBA, tertiary-butyl alcohol] |  | Growth [1]: +++; initial TBA degradation rate [7]: 30 nmoles TBA/min./mg cell protein
COC(C)(C)C [[^14C]MTBE] |  | added [14C]MTBE recovered as 14CO2 [8]: Approximately 80%
Casein | + | 
